The values below come from patent publication US12371428B2 (Exelixis, Inc., priority 2019, dated 2025).

Assay [1] addresses Human MET (residues 956-1390) (Homo sapiens (Human), UniProt P08581). Description: Human Met kinase assay, HTRF KinEase (Example D-2). It counts as biochemical. As to conditions: protocol of Example D-2 (other compounds); read-out: c-Met IC50. Put shortly: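 IC50 values come from a 4-parameter logistic fit of the […] fluorescence ratio, set between DMSO (100%) and reference compound at 1 μM (0%). Reactions held MET 956-1390 at 0.1 ng/well, ATP at Km, biotinylated peptide, 5 mM MgCl2, 1 mM MnCl2, 1 mM DTT and 3% DMSO, and ran 40 min at room temperature before streptavidin-XL665/Eu-antibody detection.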
In general terms: Time-resolved FRET reads energy transfer from a long-lived donor to a nearby acceptor.

Assay [2] has as its target KDR (phospho-KDR, VEGF165-stimulated HUVEC cells) (Homo sapiens (Human), UniProt P35968). Description: KDR autophosphorylation ELISA in HUVEC cells (Example G). It counts as cell-based. As to conditions: cellular activity; KDR autophosphorylation ELISA in HUVEC cells. Put shortly:
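Cells seeded, grown 24 h at 37 °C, starved 24 h serum-free; cpd 8-pt curve, 0.3% DMSO, 1 h; VEGF165 100 ng/mL, 5 min; cold PBS wash, lysis with orthovanadate and protease/phosphatase inhibitors; pKDR ELISA; IC50 by 4-parameter logistic regression.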

Chain of Human MET (residues 956-1390) (P08581 956-1390): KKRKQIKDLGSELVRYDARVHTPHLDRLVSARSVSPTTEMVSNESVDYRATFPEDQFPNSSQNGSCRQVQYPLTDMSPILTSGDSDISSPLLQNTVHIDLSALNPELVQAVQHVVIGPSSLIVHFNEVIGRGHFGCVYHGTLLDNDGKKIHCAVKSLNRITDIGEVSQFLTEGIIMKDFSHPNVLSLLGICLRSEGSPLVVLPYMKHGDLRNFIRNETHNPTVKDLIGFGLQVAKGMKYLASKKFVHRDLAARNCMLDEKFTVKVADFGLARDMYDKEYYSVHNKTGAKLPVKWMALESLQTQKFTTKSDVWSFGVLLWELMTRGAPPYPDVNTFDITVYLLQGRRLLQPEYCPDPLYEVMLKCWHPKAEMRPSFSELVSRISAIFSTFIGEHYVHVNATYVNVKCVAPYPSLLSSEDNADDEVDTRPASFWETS
Chain of KDR (phospho-KDR, VEGF165-stimulated HUVEC cells) (P35968 20-1356): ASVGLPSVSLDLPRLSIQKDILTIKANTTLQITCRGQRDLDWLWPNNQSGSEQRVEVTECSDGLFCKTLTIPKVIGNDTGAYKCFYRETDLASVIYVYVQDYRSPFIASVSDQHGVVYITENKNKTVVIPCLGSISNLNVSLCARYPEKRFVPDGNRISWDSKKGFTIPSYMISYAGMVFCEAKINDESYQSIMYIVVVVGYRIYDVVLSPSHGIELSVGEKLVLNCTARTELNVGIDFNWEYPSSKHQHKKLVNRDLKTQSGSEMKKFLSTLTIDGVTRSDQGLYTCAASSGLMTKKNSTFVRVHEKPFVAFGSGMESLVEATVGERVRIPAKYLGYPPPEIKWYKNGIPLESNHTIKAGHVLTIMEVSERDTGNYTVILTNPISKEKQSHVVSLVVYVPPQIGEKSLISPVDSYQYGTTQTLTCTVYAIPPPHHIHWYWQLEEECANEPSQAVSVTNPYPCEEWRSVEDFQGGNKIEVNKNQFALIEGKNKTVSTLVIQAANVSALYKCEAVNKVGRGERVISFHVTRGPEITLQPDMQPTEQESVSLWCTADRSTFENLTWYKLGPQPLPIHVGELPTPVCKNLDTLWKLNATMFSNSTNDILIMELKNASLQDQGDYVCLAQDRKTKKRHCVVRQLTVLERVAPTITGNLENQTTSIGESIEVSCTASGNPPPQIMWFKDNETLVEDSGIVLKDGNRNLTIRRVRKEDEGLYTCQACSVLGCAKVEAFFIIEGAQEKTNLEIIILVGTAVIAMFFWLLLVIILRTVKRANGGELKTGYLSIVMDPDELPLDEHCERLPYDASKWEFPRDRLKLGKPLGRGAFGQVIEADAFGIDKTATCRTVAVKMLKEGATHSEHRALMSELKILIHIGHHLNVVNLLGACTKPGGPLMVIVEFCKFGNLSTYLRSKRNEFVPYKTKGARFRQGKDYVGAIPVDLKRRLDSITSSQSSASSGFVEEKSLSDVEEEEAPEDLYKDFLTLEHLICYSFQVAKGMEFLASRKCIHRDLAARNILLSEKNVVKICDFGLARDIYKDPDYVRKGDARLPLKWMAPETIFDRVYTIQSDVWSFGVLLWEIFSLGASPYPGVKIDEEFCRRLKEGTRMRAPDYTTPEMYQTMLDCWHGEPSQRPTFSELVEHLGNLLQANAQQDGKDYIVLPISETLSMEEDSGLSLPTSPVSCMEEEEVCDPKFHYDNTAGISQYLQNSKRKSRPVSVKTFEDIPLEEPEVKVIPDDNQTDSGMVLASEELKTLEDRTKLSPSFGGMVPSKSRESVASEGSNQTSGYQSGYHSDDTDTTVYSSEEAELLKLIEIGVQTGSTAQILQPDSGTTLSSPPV

For `COc1cnc2c(Oc3ccc(NC(=O)c4cn(C)c(Cl)c(-c5ccc(F)cc5)c4=O)cc3F)ccnc2c1` [Compound 411, 6-chloro-N-[3-fluoro-4-[(7-methoxy-1,5-naphthyridin-4-yl)oxy]phenyl]-5-(4-fluorophenyl)-1-methyl-4-oxopyridine-3-carboxamide], the IC50 in assay [1] was below 100 nM; in assay [2], above 300 nM.
The corresponding values for `COc1cc2nccc(Oc3ccc(NC(=O)c4cn(C)c(Cl)c(-c5ccc(F)cc5)c4=O)cc3F)c2nc1OC` [Compound 412, 6-chloro-N-[4-[(6,7-dimethoxy-1,5-naphthyridin-4-yl)oxy]-3-fluorophenyl]-5-(4-fluorophenyl)-1-methyl-4-oxopyridine-3-carboxamide] are below 100 nM and below 100 nM.
For the molecule `COc1cc2nccc(Oc3ccc(NC(=O)c4cnc(C)c(-c5ccc(F)cc5)c4O)cc3)c2nc1OC(C)C` [Compound 413, 5-(4-fluorophenyl)-4-hydroxy-N-[4-[(7-methoxy-6-propan-2-yloxy-1,5-naphthyridin-4-yl)oxy]phenyl]-6-methylpyridine-3-carboxamide], the IC50 in assay [1] and in assay [2] was below 100 nM in each case.
On to `COc1cc2nccc(Oc3ccc(NC(=O)c4cnc(C)c(-c5ccc(F)cc5C)c4O)cc3)c2nc1OC(C)C` [Compound 414, 5-(4-fluoro-2-methylphenyl)-4-hydroxy-N-[4-[(7-methoxy-6-propan-2-yloxy-1,5-naphthyridin-4-yl)oxy]phenyl]-6-methylpyridine-3-carboxamide], for which the IC50 in assay [1] and in assay [2] was below 100 nM throughout.
In the case of `COc1cc2nccc(Oc3ccc(NC(=O)c4cnc(C)c(-c5ccc(F)cc5)c4O)cc3F)c2nc1OC(C)C` [Compound 415, N-[3-fluoro-4-[(7-methoxy-6-propan-2-yloxy-1,5-naphthyridin-4-yl)oxy]phenyl]-5-(4-fluorophenyl)-4-hydroxy-6-methylpyridine-3-carboxamide], the IC50 in assay [1] and in assay [2] was below 100 nM throughout.
With `COc1cc2nccc(Oc3ccc(NC(=O)c4cnc(C)c(-c5ccc(F)cc5C)c4O)cc3F)c2nc1OC(C)C` [Compound 416, N-[3-fluoro-4-[(7-methoxy-6-propan-2-yloxy-1,5-naphthyridin-4-yl)oxy]phenyl]-5-(4-fluoro-2-methylphenyl)-4-hydroxy-6-methylpyridine-3-carboxamide], the IC50 in assay [1] and in assay [2] was below 100 nM throughout.
Turning to `COc1cnc2c(Oc3ccc(NC(=O)c4cnc(C)c(-c5c(C)cc(F)cc5C)c4O)cc3F)ccnc2c1` [Compound 417, 5-(4-fluoro-2,6-dimethylphenyl)-N-[3-fluoro-4-[(7-methoxy-1,5-naphthyridin-4-yl)oxy]phenyl]-4-hydroxy-6-methylpyridine-3-carboxamide], the concentration for half-maximal inhibition (IC50) in assay [1] was below 100 nM; in assay [2], 100 to 300 nM.
In the same order, the values of `CCc1cnc2c(Oc3ccc(NC(=O)c4cnc(C)c(-c5ccc(F)cc5)c4O)cc3F)ccnc2c1` [Compound 418, N-[4-[(7-ethyl-1,5-naphthyridin-4-yl)oxy]-3-fluorophenyl]-5-(4-fluorophenyl)-4-hydroxy-6-methylpyridine-3-carboxamide] are below 100 nM and below 100 nM.
Consider `CCc1cnc2c(Oc3ccc(NC(=O)c4cnc(C)c(-c5ccc(F)cc5C)c4O)cc3F)ccnc2c1` [Compound 419, N-[4-[(7-ethyl-1,5-naphthyridin-4-yl)oxy]-3-fluorophenyl]-5-(4-fluoro-2-methylphenyl)-4-hydroxy-6-methylpyridine-3-carboxamide], for which the IC50 in assay [1] and in assay [2] was below 100 nM throughout.
Take `CCc1cc2nccc(Oc3ccc(NC(=O)c4cnc(C)c(-c5ccc(F)cc5)c4O)cc3F)c2nc1OC` [Compound 420, N-[4-[(7-ethyl-6-methoxy-1,5-naphthyridin-4-yl)oxy]-3-fluorophenyl]-5-(4-fluorophenyl)-4-hydroxy-6-methylpyridine-3-carboxamide]: the IC50 in assay [1] was 100 to 300 nM; in assay [2] it was below 100 nM.
Turning to `CCc1cc2nccc(Oc3ccc(NC(=O)c4cnc(C)c(-c5ccc(F)cc5C)c4O)cc3F)c2nc1OC` [Compound 421, N-[4-[(7-ethyl-6-methoxy-1,5-naphthyridin-4-yl)oxy]-3-fluorophenyl]-5-(4-fluoro-2-methylphenyl)-4-hydroxy-6-methylpyridine-3-carboxamide], the results for the IC50 in assay [1] and in assay [2] were 100 to 300 nM and below 100 nM, respectively.
For the molecule `C=Cc1cc2nccc(Oc3ccc(NC(=O)c4cnc(C)c(-c5ccc(F)cc5)c4O)cc3F)c2nc1OC` [Compound 422, N-[4-[(7-ethenyl-6-methoxy-1,5-naphthyridin-4-yl)oxy]-3-fluorophenyl]-5-(4-fluorophenyl)-4-hydroxy-6-methylpyridine-3-carboxamide], the IC50 in assay [1] and in assay [2] was below 100 nM throughout.
As to `C=Cc1cc2nccc(Oc3ccc(NC(=O)c4cnc(C)c(-c5ccc(F)cc5C)c4O)cc3F)c2nc1OC` [Compound 423, N-[4-[(7-ethenyl-6-methoxy-1,5-naphthyridin-4-yl)oxy]-3-fluorophenyl]-5-(4-fluoro-2-methylphenyl)-4-hydroxy-6-methylpyridine-3-carboxamide], the results for the concentration for half-maximal inhibition (IC50) in assay [1] and in assay [2] were 100 to 300 nM and below 100 nM, respectively.
Turning to `COc1cc2nccc(Oc3ccc(NC(=O)c4cnc(C)c(-c5ccc(F)cc5)c4O)cc3F)c2nc1OCCCN1CCOCC1` [Compound 424, N-[3-fluoro-4-[[7-methoxy-6-(3-morpholin-4-ylpropoxy)-1,5-naphthyridin-4-yl]oxy]phenyl]-5-(4-fluorophenyl)-4-hydroxy-6-methylpyridine-3-carboxamide], the IC50 in assay [1] and in assay [2] was below 100 nM in each case.
On to `COc1cc2nccc(Oc3ccc(NC(=O)c4cnc(C)c(-c5ccc(F)cc5C)c4O)cc3F)c2nc1OCCCN1CCOCC1` [Compound 425, N-[3-fluoro-4-[[7-methoxy-6-(3-morpholin-4-ylpropoxy)-1,5-naphthyridin-4-yl]oxy]phenyl]-5-(4-fluoro-2-methylphenyl)-4-hydroxy-6-methylpyridine-3-carboxamide], for which the 50% inhibitory concentration (IC50) in assay [1] and in assay [2] was below 100 nM throughout.
Take `Cc1cc2nccc(Oc3ccc(NC(=O)c4cnc(C)c(-c5ccc(F)cc5)c4O)cc3F)c2nc1F` [Compound 426, N-[3-fluoro-4-[(6-fluoro-7-methyl-1,5-naphthyridin-4-yl)oxy]phenyl]-5-(4-fluorophenyl)-4-hydroxy-6-methylpyridine-3-carboxamide]: the IC50 in assay [1] and in assay [2] was below 100 nM throughout.
Consider `Cc1cc(F)ccc1-c1c(C)ncc(C(=O)Nc2ccc(Oc3ccnc4cc(C)c(F)nc34)c(F)c2)c1O` [Compound 427, N-[3-fluoro-4-[(6-fluoro-7-methyl-1,5-naphthyridin-4-yl)oxy]phenyl]-5-(4-fluoro-2-methylphenyl)-4-hydroxy-6-methylpyridine-3-carboxamide], for which the IC50 in assay [1] was 100 to 300 nM; in assay [2], below 100 nM.
The corresponding values for `Cc1cc(F)ccc1-c1c(C)nc(C)c(C(=O)Nc2ccc(Oc3ccnc4cc(C)c(F)nc34)c(F)c2)c1O` [Compound 428, N-[3-fluoro-4-[(6-fluoro-7-methyl-1,5-naphthyridin-4-yl)oxy]phenyl]-5-(4-fluoro-2-methylphenyl)-4-hydroxy-2,6-dimethylpyridine-3-carboxamide] are below 100 nM and below 100 nM.
Consider `Cc1cc(F)ccc1-c1c(C)n(C)cc(C(=O)Nc2ccc(Oc3ccnc4cc(C)c(F)nc34)c(F)c2)c1=O` [Compound 429, N-[3-fluoro-4-[(6-fluoro-7-methyl-1,5-naphthyridin-4-yl)oxy]phenyl]-5-(4-fluoro-2-methylphenyl)-1,6-dimethyl-4-oxopyridine-3-carboxamide], for which the values for the IC50 in assay [1] and in assay [2] were below 100 nM and above 300 nM, respectively.
Regarding `Cc1cc(F)ccc1-c1c(C)nnc(C(=O)Nc2ccc(Oc3ccnc4cc(C)c(F)nc34)c(F)c2)c1O` [Compound 430, N-[3-fluoro-4-[(6-fluoro-7-methyl-1,5-naphthyridin-4-yl)oxy]phenyl]-5-(4-fluoro-2-methylphenyl)-4-hydroxy-6-methylpyridazine-3-carboxamide], the IC50 in assay [1] is below 100 nM; in assay [2], above 300 nM.
In the same order, the values of `COc1nc2c(Oc3ccc(NC(=O)c4c(C)nc(C)c(-c5ccc(F)cc5)c4O)cc3F)ccnc2cc1O` [Compound 431, N-[3-fluoro-4-[(7-hydroxy-6-methoxy-1,5-naphthyridin-4-yl)oxy]phenyl]-5-(4-fluorophenyl)-4-hydroxy-2,6-dimethylpyridine-3-carboxamide] are below 100 nM and below 100 nM.
On to `COCCOc1cc2nccc(Oc3ccc(NC(=O)c4c(C)nc(C)c(-c5ccc(F)cc5)c4O)cc3F)c2nc1OC` [Compound 432, N-[3-fluoro-4-[[6-methoxy-7-(2-methoxyethoxy)-1,5-naphthyridin-4-yl]oxy]phenyl]-5-(4-fluorophenyl)-4-hydroxy-2,6-dimethylpyridine-3-carboxamide], for which the IC50 in assay [1] and in assay [2] was below 100 nM each time.
Turning to `COc1cc2nccc(Oc3ccc(NC(=O)c4cn(C5CC5)c(C)c(-c5ccc(F)cc5)c4=O)cc3F)c2nc1OC` [Compound 433, 1-cyclopropyl-N-[4-[(6,7-dimethoxy-1,5-naphthyridin-4-yl)oxy]-3-fluorophenyl]-5-(4-fluorophenyl)-6-methyl-4-oxopyridine-3-carboxamide], the IC50 in assay [1] was below 100 nM; in assay [2], above 300 nM.

Usually IC50 stands for the concentration at which inhibition is half-maximal.
